This is an account of results in patent US20230047569A1, “PESTICIDAL COMPLEX COMPOSITIONS FOR SYNERGISTIC DELIVERY OF PESTICIDAL ACTIVE INGREDIENTS AND METHODS OF SELECTION THEREOF” (0903608 B.C. Ltd., priority 2019, published 2023).

One data set concerns Trichoplusia ni. The data set is described as follows: In-planta insecticidal efficacy on sprayed green cabbage plants (Abbott and Colby formulas). Conditions: 6 days; for Survival Rate (%): Coragen […] (0.104 ppm chlorantraniliprole) and/or aliphatic acid 750 ppm, 10% isopropanol; for Observed Efficacy, W (%): Coragen […] and/or aliphatic acid 750 ppm, Abbott corrected vs 10% isopropanol control. Type of data set: in vivo. On the procedure:
Water and 10% isopropanol were tested as control treatments.
Green cabbage plants (Brassica oleracea var. capitate, Danish Ballhead cultivar) were grown from seed (available from West Coast Seeds, Delta, BC, Canada) in potting soil for 4-6 weeks in a pest-free indoor growing environment. At between 4-6 weeks of age, each cabbage plant was sprayed with 20 mL of treatment solution using a pressurized CO2 sprayer from approximately 18 inches above the plant, and allowed to dry.
While for SF<1, antagonism is present and for SF=1, the efficacy of the compounds is merely additive.

The nature of data set [1]: Solubility / effective solubilized concentration in 10% DMSO/90% PDB by HPLC. Conditions: working stock: DMSO stock diluted 10-fold in PDB. As for the experimental part:
This solution was diluted 10-fold in potato dextrose broth (PDB) to give a concentration of 0.05 mg/mL in 10% DMSO/90% PDB.
Concentrated stock solutions were prepared by dissolving pesticidal active ingredient in 100% dimethylsulfoxide (DMSO), which were then diluted 10-fold in potato dextrose broth (PDB) to give a working stock solution, as described below: […]

Take `CCC(N)C(=O)O` (stereo not shown) [2-aminobutyric acid]: in the data set on Trichoplusia ni, the “Survival Rate (%)” value came to 58.50% and the “Observed Efficacy, W (%)” value was found to be 8.59%. For `CCC(C)CCC(=O)O` (stereo not shown) [4-methylhexanoic acid] the same measures were 62.50% and 2.34%. Turning to `O=C(O)CCCCCCCCCO` [10-hydroxydecanoic acid], in the data set on Trichoplusia ni, the “Survival Rate (%)” value is given as 40.50% and the “Observed Efficacy, W (%)” value is 36.72%.

Compound `CO/C=C(/C(=O)OC)c1ccccc1Oc1cc(Oc2ccccc2C#N)ncn1` [Azoxystrobin, azoxystrobin] had an effective solubilized concentration in data set [1] of 0.15 mg/mL.
